Where two headings read alike, the source gives them in different places. Square brackets hold non-standard residues; d marks the D form. Peptide text beside a SMILES is read from it. ξ: configuration not given here. Dmt = Cc1cc(O)cc(C)c1C[C@H](N)C(=O)O; ξGly(octyl) = CCCCCCCCC(N)C(=O)O
How the values were obtained:
Caco-2 cell monolayers = test: Caco-2 cell permeability assay; format: in vitro ADME, human; details: for P app (×10^−7, cm/s): across Caco-2 cell monolayers, mean ± SEM; for increase in permeability (P app) compared to peptide 1: Caco-2 cell monolayers, vs 1 in the same experiment
Procedure: (§1) A suspension of 10^5 Caco-2 cells (100 µL) in culture medium supplemented with 1% penicillin/streptomycin (100 U/mL) was pipetted into polycarbonate cell culture inserts (pore size 0.4 µm, 6.5 mm diameter, Transwell®) in a 24-well plate, and the same medium was also added to the basolateral chamber (0.6 mL). Medium in both chambers was changed every second day.
(§2) After 21–28 days, the integrity of the tight junctions and the monolayers was assessed by measuring the transepithelial electrical resistance (TEER) using the Millicell-ERS epithelial volt-ohmmeter system (Millipore Corporation). Wells that gave TEER values of 1500–4280 (Ωcm^2) were used for the experiment.
(§3) After the initial TEER test, the Caco-2 cell monolayers were washed with HBSS-Hepes buffer (3×) and then incubated with the same buffer at 37°C. After 30 minutes the buffer was removed from the apical chamber and 100 µL aliquots of peptides, dissolved to a concentration of 200 µM in HBSS-Hepes containing 1% DMSO, were added to at least three wells. As a further test of the Caco-2 cell monolayer integrity, radiolabelled [^14C]-D-mannitol (1.80 µCi) in HBSS-Hepes buffer was added to three wells. The plates were incubated in a shaker set to 400 rpm at 37°C, and samples (0.4 mL) were collected from the basolateral chamber at 30, 90, 120 and 150 minutes and replaced with the same volume of buffer. At the end of the experiment, 50 µL were collected from the apical chamber of each well. LC-MS quantification of the peptides was performed as described in Caco-2 cell homogenate stability assay. The radioactivity of the [^14C]-D-mannitol samples was quantified by liquid scintillation counting (Liquid Scintillation Systems, BECKMAN LS3801, USA), and the apparent permeability (P app) for each compound was calculated using the following equation: [drawing 1] dC/dt steady-state rate of change in the chemical concentration (M/s) or radiochemical concentration (dpm mL/s) in the receiver chamber
(§4) Vr volume of the receiver chamber (mL)
(§5) A surface area of the cell monolayers
(§6) C0 initial concentration in the donor chamber (M or dpm/mL)

[1] = Caco-2 cell permeability assay; format: in vitro ADME, human; details: human, Caco-2, pH 7.4, across Caco-2 cell monolayers, mean ± SEM
Procedure: as §1, §2, §3, §4, §5, §6

MOP receptor [2] = biological target: T1, MOP receptor (Homo sapiens, UniProt P35372); test: Inhibition of forskolin-stimulated cAMP formation in SH-SY5Y cells; format: cell-based
T1 construct: SH-SY5Y cells, which endogenously expresses MOP and δ-opioid (DOP) receptors; host or cells: SH-SY5Y human neuroblastoma cells
T1 sequence (P35372 whole entry): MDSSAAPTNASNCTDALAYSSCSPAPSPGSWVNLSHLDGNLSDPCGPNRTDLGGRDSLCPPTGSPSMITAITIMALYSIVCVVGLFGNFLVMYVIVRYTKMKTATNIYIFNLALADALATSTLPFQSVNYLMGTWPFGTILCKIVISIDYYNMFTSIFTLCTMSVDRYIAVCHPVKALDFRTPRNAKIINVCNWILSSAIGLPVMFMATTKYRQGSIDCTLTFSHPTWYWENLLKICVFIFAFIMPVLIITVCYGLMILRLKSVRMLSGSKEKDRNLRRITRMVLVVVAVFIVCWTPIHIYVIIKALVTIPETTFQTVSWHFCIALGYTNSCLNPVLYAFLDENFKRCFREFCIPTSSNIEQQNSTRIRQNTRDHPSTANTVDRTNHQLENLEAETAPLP
Procedure: SH-SY5Y cells, which express MOP and DOP receptors, were seeded (10^5 cells/mL, 100 µL) in a 96-well plate and incubated overnight to reach 80% confluence. Culture medium supplemented with 30 µM forskolin was used make peptide solution (100 nM) and aliquots (100 µL) of each peptide were added to three wells. After incubation at 37°C for 30 minutes, the culture medium was removed and lysis buffer from a cAMP Biotrak EIA kit (Amersham, Buckinghamshire, UK) was added, followed by an anti-cAMP antibody. After incubation at 4°C for 2 hours, a cAMP peroxidase conjugate was added and the plate incubated for another hour at 4°C. Then, the cell lysate was incubated with a 3,3′5,5′-tetramethylbenzidine (TMB) substrate provided by the Biotrak EIA kit and finally […] sulfuric acid was added. Absorbance of each well was determined using a plate reader at 450 nm and compared with a cAMP standard curve (concentration 0–3.2 pmol). Data was represented as a percentage of the maximum cAMP response to forskolin, shown as a mean (±SEM) of three separate experiments each performed in triplicate (GraphPad Prism™ (v5.0) software).

[3] = Caco-2 cell homogenate stability assay; format: in vitro ADME, human; details: for half-life: human, Caco-2, pH 7.4, Caco-2 cell homogenate, mean ± SEM, read-out: t 1/2 (min, Caco-2)
Procedure: A suspension of 5×10^4 Caco-2 cells in 100 µL culture medium was added to the wells of a 96-well cell culture plate. Culture medium supplemented with 1% penicillin/streptomycin (100 U/mL) was changed every second day.
After 21–28 days, the cells were washed with 0.2% EDTA (2×100 µL) and Hank's Balanced Salt Solution containing 25 mM 4-(2-hydroxyethyl)-1-piperazineethanesulfonic acid (HBSS-Hepes, pH 7.4; 3×100 µL). HBSS–Hepes buffer was added to each well (100 µL), and the cells were disrupted by two one-second pulses with a Sonics Vibracell ultrasonic processor set at 60% amplitude at 130 W. The cell debris was removed by centrifugation (2000 rpm, 5 minutes) and the protein content of three wells was determined using the Bio-Rad protein assay kit, by comparison with a standard curve generated from known concentrations of bovine serum albumin. The protein content of the cell homogenate was adjusted to 0.6–0.9 mg/mL in a clean 96-well plate.
The peptides were dissolved in HBSS–Hepes buffer containing 1% DMSO (dimethyl sulfoxide), and each peptide solution (200 µM, 100 µL) was added to three wells and the plate was incubated at 37°C in a shaker at 400 rpm. At pre-selected time points (5, 10, 15, 20, 30, 40, 50, 60, and 120 min), samples (10 µL) were collected and enzymatic digestion was stopped by addition of 5 µL TFA. These samples were then diluted with water (75.5 µl) and DMSO (9.5 µL) and analyzed by LC-MS to determine the concentration of peptide remaining in the solution.
LC-MS was carried out on a Luna Phenomenex C18 column (2.0×50 mm, 5 µm) with a gradient of 100% A (0.1% formic acid in water) to 100% B (0.1% formic acid in acetonitrile/water 9∶1) over 5.5 minutes at a flow rate of 0.3 mL/min. The mass spectrometer was set to selective ion monitoring in the positive ion electrospray mode. A standard curve was generated from standards containing known peptide concentrations, and used to determine the peptide concentration in the samples.

Plasma stability assay = format: in vitro ADME; details: human plasma, 37°C, mean ± SEM; read-out: t 1/2 (min, Plasma)
Procedure: Fresh human plasma was obtained from healthy and consenting volunteers (ethics approval number: 2006000950). The peptides were dissolved in PBS containing 5% DMSO (1 mg/mL), and 300 µL aliquots were mixed with 300 µL of pre-warmed plasma and incubated at 37°C. At selected time points (5, 10, 20, 30, 40, 60, 90, and 120 min), samples (50 µL) were collected and plasma proteins precipitated by addition of acetonitrile (75 µL). After centrifugation (10,000 rpm, 10 minutes), the peptide content of the supernatant was analyzed by HPLC with a Vydac C18 column (4.6×250 mm, 5 µm) at a flow rate of 1 mL/min and a gradient of 100% A (0.1% TFA in water) to 100% B (0.1% TFA in acetonitrile/water 9∶1) over 30 minutes.

MOP receptor [4] = biological target: T1, MOP receptor; test: SH-SY5Y receptor binding assay ([3H]DAMGO displacement from whole cells); details: DPDPE 1 µM, read-out: K iμ
Procedure: A suspension of SH-SY5Ycells (10^5 cells per well) was seeded into 24-well plates and incubated overnight. The cells were washed with PBS and pre-incubated with 300 µL binding buffer (50 mM Tris buffer, pH 7.4, 2% BSA). A mixture of [^3H]-DAMGO (100 µL, 15 nM), DPDPE (100 µL, 1 µM) and 100 µL aliquots of each peptide in a range of concentrations (0.1 nM to 100 µM) was added to each well and the plate was incubated at 37°C. An excess of [^3H]-DAMGO (1 µM) was used to determine non-specific binding and buffer (100 µL) was measured as the blank. After 60 minutes, the cells were washed with PBS and 1 M NaOH (0.5 mL) was used to lyse the cells. The radioactivity of the cell suspension was measured by scintillation counting (Liquid Scintillation Systems, BECKMAN LS3801, USA). Data analysis was performed using the one-site competition binding model (GraphPad Prism™ (v5.0) software).

[5] = test system: castor oil-induced diarrhea in rats; test: Castor oil-induced diarrhea test in rats; format: in vivo, rat
Procedure: (§7) • Castor oil-induced diarrhea test in rats The ability of test items to inhibit castor-oil induced diarrhea as an index of constipation was assessed. Prior to the start of experimentation, drug-naive rats weighing 200–250 g were fasted for 16 h with free access to water. Individually caged rats were acclimatized for 1 h without access to food or water prior to drug or vehicle administration. […] Rats were gavaged with 1 mL of castor oil five minutes after test item or vehicle administration. Presence or absence of diarrhea was recorded every hour according to a scoring system based on the weight of feces boli and the feces consistency. Weight was scored from 0 (no feces) to 3 (>3 g of feces) and consistency was scored from 0 (normal-shape feces) to 3 (shapeless feces with large amounts of liquid). When both weight of feces and the feces consistency were scored at ≥2, diarrhea was considered to be present. • Charcoal test The charcoal test was assessed in groups of drug-naive rats to measure gastrointestinal (GI) transit. […] The total length of the small intestine from the pylorus to the ileocaecal junction as well as the most distal point of migration of the charcoal meal was measured. The percentage of the distance which the charcoal meal travelled relative to the total length of the small intestine (GI propulsion) was calculated.

[6] = test system: gastrointestinal transit of a charcoal meal in rats; test: Charcoal test (gastrointestinal transit); format: in vivo, rat
Procedure: as §7

[7] = test system: CCI-rat model of neuropathic pain; test: Antinociception in CCI-rat model of neuropathic pain (Von Frey paw withdrawal thresholds); format: in vivo; details: morphine i.v. at equi-effective dose, CCI-rats, p<0.001 vs vehicle
Excerpt: Chronic constriction injury (CCI) of the sciatic nerve in the rat was used as a model of neuropathic pain and was induced according to the method of Bennett and Xie [21]. Briefly, rats were anesthetized with 3% isoflurane delivered in oxygen. A 7 mm segment of the left common sciatic nerve was exposed at mid-thigh level, proximal to the sciatic trifurcation. […] The surgical incision was closed by suturing the muscles and skin in layers. To prevent infection, topical antibiotic powder was applied to the wound. The day of CCI surgery was regarded as day 0. Rats were inspected daily considering posture of the affected hindpaw, exploring behavior, body weight, water intake, and signs of autotomy until experimentation day, which was 14 days post-surgery.
Paw withdrawal thresholds (PWT's), expressed in grams, were measured using a set of calibrated Von Frey filaments (Touch Test- North Coast, 800-821-9319). Animals were acclimatized for at least 15 min in wire mesh metabolic cages (20×20×17 cm). Von Frey filaments which delivered forces in the range 2–20 g at 2 g intervals were used according to the up-down method [20]. Filaments were applied to the plantar surface of the footpad of the hindpaw so that the filament bent slightly for 3 seconds. […]

[8] = separate experiment [d] with 1 and 3 tested together

| SMILES | P app (×10^−7, cm/s) (Caco-2 cell monolayers; LC/MS) | Papp A→B at 150 min, 200 µM ([1]; LC/MS) [×10⁻⁶ cm/s] | Papp A→B at 150 min, 200 µM [1, 8] [×10⁻⁶ cm/s] | IC50 (MOP receptor [2]) [nM] | half-life ([3]; 37°C) [min] | half-life (Plasma stability assay) [min] | Ki (MOP receptor [4]; mean ± SEM) [nM] | increase in permeability (P app) compared to peptide 1 (Caco-2 cell monolayers) [fold] | further results |
| --- | --- | --- | --- | --- | --- | --- | --- | --- | --- |
| NC(=O)[C@H](Cc1ccccc1)NC(=O)[C@H](Cc1c[nH]c2ccccc12)NC(=O)[C@@H]1CCCN1C(=O)[C@@H](N)Cc1ccc(O)cc1 [Compound 1, Tyr-Pro-Trp-Phe-NH2, reference compound] | 0.2 (±0.02) ×10^−7 cm/s | 0.02 ± 0.002 | 0.1 ± 0.034 | – | – | – | – | – | – |
| Cc1cc(O)cc(C)c1C[C@H](N)C(=O)N1CCC[C@H]1C(=O)N[C@@H](Cc1c[nH]c2ccccc12)C(=O)N[C@@H](Cc1ccccc1)C(N)=O [Compound 2] | 2.5 (±0.3) ×10^−7 cm/s | 0.25 ± 0.03 | – | 0.3 ± 0.02 | 24.1 ± 3.6 | 4.2 ± 1.5 | 0.06 ± 0.01 | – | – |
| CCCCCCCCC(N)C(=O)N[C@@H](Cc1ccc(O)cc1)C(=O)N1CCC[C@H]1C(=O)N[C@@H](Cc1c[nH]c2ccccc12)C(=O)N[C@@H](Cc1ccccc1)C(N)=O (stereo partly shown) [Compound 3] (H-[ξGly(octyl)]YPWF-NH2) | – | – | 9.01 ± 1.22 | 31.4 ± 1.45 | – | – | – | ~90 | P app (×10^−7, cm/s) (Caco-2 cell monolayers; [8]): 90.1 (±12.2) ×10^−7 cm/s; half-life [3, 8]: 77.4 ± 7.1 min; inhibition of castor oil-induced diarrhea ([5]; i.v. doses up to 16 µmol/kg, p>0.05): No significant inhibition; GI propulsion (%) ([6]; i.v. 16 µmol/kg, mean (± SEM)): 64.3 (±3.0) %; Ki (MOP receptor [4]; separate experiment [d] with 1 and 3, mean ± SEM): 25.7 ± 1.3 nM |
| CCCCCCCCC(N)C(=O)N[C@@H](Cc1c(C)cc(O)cc1C)C(=O)N1CCC[C@H]1C(=O)N[C@@H](Cc1c[nH]c2ccccc12)C(=O)N[C@@H](Cc1ccccc1)C(N)=O (stereo partly shown) [Compound 4] (H-[ξGly(octyl)][Dmt]PWF-NH2) | 12.4 (±4.7) ×10^−7 cm/s | 1.24 ± 0.47 | – | 1.3 ± 0.22 | 96.3 ± 8.3 | 41.4 ± 3.3 | 0.5 | 62 | increase in Caco-2 cell homogenate stability compared with parent peptide 1 ([3]; vs peptide 1 tested in the same experiment): 34 fold |
| CN1CC[C@]23c4c5ccc(O)c4O[C@H]2[C@@H](O)C=C[C@H]3[C@H]1C5 [morphine, reference compound] | – | – | – | – | – | – | – | – | inhibition of castor oil-induced diarrhea ([5]; i.v. 2 µmol/kg, p<0.001): inhibited castor oil-induced diarrhea significantly; antinociception in the contralateral (uninjured) hindpaw [7]: produced significant antinociceptive activity; GI propulsion (%) ([6]; i.v. 2 µmol/kg, mean ± SEM, p<0.001): 29.5±4.6% |

Source: paper PMC3422351, “Lipo-Endomorphin-1 Derivatives with Systemic Activity against Neuropathic Pain without Producing Constipation” (PLoS ONE, 2012)
